Measured values published in ChEMBL document CHEMBL1148292 (J Med Chem, 2004).

Assays:
Adenosine receptor A2b [1] = target: T1, Adenosine receptor A2b (Homo sapiens, UniProt P29275); experiment: Binding affinity of compound for displacement of [3H]DPCPX binding in HEK293 membranes expressing human A2B adenosine receptors
T1 sequence (P29275 whole entry): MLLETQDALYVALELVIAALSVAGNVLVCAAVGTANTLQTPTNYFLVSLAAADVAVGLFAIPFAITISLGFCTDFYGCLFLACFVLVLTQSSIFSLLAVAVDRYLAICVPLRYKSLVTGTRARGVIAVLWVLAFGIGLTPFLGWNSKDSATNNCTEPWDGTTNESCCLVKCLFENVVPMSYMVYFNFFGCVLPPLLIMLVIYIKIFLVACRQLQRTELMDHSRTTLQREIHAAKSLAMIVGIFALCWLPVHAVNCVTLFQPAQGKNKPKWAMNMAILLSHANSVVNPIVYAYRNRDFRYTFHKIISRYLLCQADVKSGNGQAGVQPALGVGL

Adenosine receptor A2b [2] = target: T1, Adenosine receptor A2b; experiment: Inhibitory activity against cAMP production in CHO cells transfected with human A2B adenosine receptor; assay type: functional, cell-based
Adenosine receptor A1 = target: T2, Adenosine receptor A1 (Homo sapiens, UniProt P30542); experiment: Displacement of specific [3H]DPCPX binding at human adenosine A1 receptor expressed in CHO cells; assay type: cell-based
T2 sequence (P30542 whole entry): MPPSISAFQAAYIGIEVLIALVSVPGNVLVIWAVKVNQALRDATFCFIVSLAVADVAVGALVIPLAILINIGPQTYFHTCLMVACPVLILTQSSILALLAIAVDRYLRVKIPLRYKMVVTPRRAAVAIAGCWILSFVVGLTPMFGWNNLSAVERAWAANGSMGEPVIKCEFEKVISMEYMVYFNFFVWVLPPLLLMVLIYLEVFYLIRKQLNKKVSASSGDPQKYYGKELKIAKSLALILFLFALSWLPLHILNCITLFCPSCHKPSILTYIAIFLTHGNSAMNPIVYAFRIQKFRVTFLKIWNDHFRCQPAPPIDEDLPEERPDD

Adenosine receptor A3 = target: T3, Adenosine receptor A3 (Homo sapiens, UniProt P0DMS8); experiment: Binding affinity of compound for displacement of specific [3H]MRE3008-F20 binding at human A3 receptors expressed in CHO cells; assay type: cell-based
T3 sequence (P0DMS8 whole entry): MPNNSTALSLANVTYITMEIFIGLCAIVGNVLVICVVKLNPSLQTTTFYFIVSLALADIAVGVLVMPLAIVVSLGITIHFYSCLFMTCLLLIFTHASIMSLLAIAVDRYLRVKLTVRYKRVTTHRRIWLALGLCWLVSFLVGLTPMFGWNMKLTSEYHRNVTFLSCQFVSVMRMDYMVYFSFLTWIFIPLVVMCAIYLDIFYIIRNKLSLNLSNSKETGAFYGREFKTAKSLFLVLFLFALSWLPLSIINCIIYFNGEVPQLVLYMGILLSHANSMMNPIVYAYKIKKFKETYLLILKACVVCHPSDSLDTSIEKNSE

Adenosine receptor A2a = Adenosine receptor A2a (Homo sapiens, UniProt P29274); experiment: Binding affinity of compound for displacement of specific [3H]ZM-241385 binding at human adenosine A2A receptor expressed in CHO cells; assay type: cell-based
Adenosine receptor A2b [3] = target: T1, Adenosine receptor A2b; experiment: Binding affinity of compound for displacement of specific [3H]- DPCPX binding at human A2B receptors expressed in HEK293 cells; assay type: cell-based

Sequence of Adenosine receptor A2a (P29274 whole entry): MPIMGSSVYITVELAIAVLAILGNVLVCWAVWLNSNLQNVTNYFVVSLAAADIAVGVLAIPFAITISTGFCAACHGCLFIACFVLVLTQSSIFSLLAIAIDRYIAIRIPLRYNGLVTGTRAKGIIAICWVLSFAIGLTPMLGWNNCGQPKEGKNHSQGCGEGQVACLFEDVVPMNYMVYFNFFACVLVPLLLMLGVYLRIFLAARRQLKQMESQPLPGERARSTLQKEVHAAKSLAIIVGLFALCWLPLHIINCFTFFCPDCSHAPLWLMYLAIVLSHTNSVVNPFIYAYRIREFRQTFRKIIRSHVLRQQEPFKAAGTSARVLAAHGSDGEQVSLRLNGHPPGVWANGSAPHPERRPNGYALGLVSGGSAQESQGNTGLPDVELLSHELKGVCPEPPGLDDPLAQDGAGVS

Compound: C=CCn1c(=O)c2[nH]c(-c3cc(OCC(=O)N4CCN(c5ccccc5)CC4)nn3C)nc2n(CC=C)c1=O
- Ki (Adenosine receptor A2b [1]): 24 nM
- IC50 (Adenosine receptor A2b [2]): 81 nM
- Ki (Adenosine receptor A1): > 1000 nM

Compound: CCCn1c(=O)c2[nH]c(-c3cc(OCC(=O)Nc4ccc(C(=O)OCC)cc4)nn3C)nc2n(CCC)c1=O
- Ki (Adenosine receptor A2b [1]): 32 nM
- IC50 (Adenosine receptor A2b [2]): 120 nM
- Ki (Adenosine receptor A1): > 1000 nM

Compound: CCCn1c(=O)c2[nH]c(-c3cc(OCC(=O)Nc4ccc(F)cc4)no3)nc2n(CCC)c1=O
- Ki (Adenosine receptor A1): > 1000 nM

Compound: CCCn1c(=O)c2[nH]c(-c3cc(NC(=O)Cc4ccc(N(C)C)cc4)nn3C)nc2n(CCC)c1=O
- Ki (Adenosine receptor A1): > 1000 nM

Compound: CCCn1c(=O)c2[nH]c(-c3cc(NC(=O)Cc4ccc(OCc5ccccc5)cc4)nn3C)nc2n(CCC)c1=O
- Ki (Adenosine receptor A2b [1]): 56 nM
- IC50 (Adenosine receptor A2b [2]): 185 nM
- Ki (Adenosine receptor A1): > 1000 nM

Compound: CCCn1c(=O)c2[nH]c(-c3cc(OCC(=O)Nc4ccncc4)nn3C)nc2n(CCC)c1=O
- Ki (Adenosine receptor A3): > 1000 nM
- Ki (Adenosine receptor A2a): > 1000 nM

Compound: CCCn1c(=O)c2[nH]c(-c3cc(OCC(=O)N4CCN(C)CC4)nn3C)nc2n(CCC)c1=O
- Ki (Adenosine receptor A2b [1]): 76 nM
- Ki (Adenosine receptor A2b [3]): 76 nM
- IC50 (Adenosine receptor A2b [2]): 322 nM
- Ki (Adenosine receptor A1): > 1000 nM
- Ki (Adenosine receptor A1; cho): > 1000 nM

Compound: CCCn1c(=O)c2[nH]c(-c3cc(NC(=O)Cc4ccc([N+](=O)[O-])cc4)nn3C)nc2n(CCC)c1=O
- Ki (Adenosine receptor A1): > 1000 nM

Compound: CCCn1c(=O)c2[nH]c(-c3cc(OCC(=O)Nc4ccc(Br)cc4)nn3C)nc2n(CCC)c1=O
- Ki (Adenosine receptor A2b [1]): 20 nM

Compound: CCCn1c(=O)c2[nH]c(-c3cc(OCC(=O)Nc4ccc(OC)c(OC)c4)no3)nc2n(CCC)c1=O
- Ki (Adenosine receptor A1): > 1000 nM

Compound: Cn1nc(-c2nc3c([nH]2)c(=O)n(C)c(=O)n3C)cc1N
- Ki (Adenosine receptor A2b [3]): 175 nM
- Ki (Adenosine receptor A3): > 1000 nM
- Ki (Adenosine receptor A1): > 1000 nM
- Ki (Adenosine receptor A2a): > 1000 nM

Compound: CCCn1c(=O)c2[nH]c(-c3cc(NC(=O)[C@H](C)c4ccccc4)nn3C)nc2n(CCC)c1=O
- Ki (Adenosine receptor A1): > 1000 nM

Compound: CCCn1c(=O)c2[nH]c(-c3cc(OCC(=O)Nc4ccc(C(C)CC)cc4)nn3C)nc2n(CCC)c1=O (centres undefined)
- Ki (Adenosine receptor A3): > 1000 nM
- Ki (Adenosine receptor A2a): > 1000 nM

Compound: CCCn1c(=O)c2[nH]c(-c3cc(C(=O)O)n(C)n3)nc2n(CCC)c1=O
- Ki (Adenosine receptor A1): > 1000 nM

Compound: CCCn1c(=O)c2[nH]c(-c3cc(NC(=O)Cc4ccc(Cl)cc4)nn3C)nc2n(CCC)c1=O
- Ki (Adenosine receptor A2b [1]): 28 nM

Compound: CCCn1c(=O)c2[nH]c(-c3cc(NC(=O)Cc4ccc(OCc5ccccc5C(F)(F)F)cc4)nn3C)nc2n(CCC)c1=O
- Ki (Adenosine receptor A2b [1]): 13 nM

Compound: CCCn1c(=O)c2[nH]c(-c3cc(NC(=O)Cc4ccccc4)n(C)n3)nc2n(CCC)c1=O
- Ki (Adenosine receptor A2b [1]): 34 nM
- Ki (Adenosine receptor A3): > 1000 nM
- Ki (Adenosine receptor A2a): > 1000 nM

Compound: CCCn1c(=O)c2[nH]c(-c3cc(OCC(=O)Nc4ccc(C(C)=O)cc4)nn3C)nc2n(CCC)c1=O
- Ki (Adenosine receptor A3): > 1000 nM
- Ki (Adenosine receptor A1): > 1000 nM
- Ki (Adenosine receptor A2a): > 1000 nM

Compound: CCCn1c(=O)c2[nH]c(-c3cc(OCC(=O)Nc4ccc(OC)cc4)no3)nc2n(CCC)c1=O
- Ki (Adenosine receptor A1): > 1000 nM

Compound: CCCn1c(=O)c2[nH]c(-c3cc(OCC(=O)N4CCN(Cc5ccccc5)CC4)nn3C)nc2n(CCC)c1=O
- Ki (Adenosine receptor A3): > 1000 nM
- Ki (Adenosine receptor A2a): > 1000 nM

Compound: CCCn1c(=O)c2[nH]c(-c3ccc(NC(=O)Cc4ccccc4)cc3)nc2n(CCC)c1=O
- Ki (Adenosine receptor A2b [3]): 649 nM
- Ki (Adenosine receptor A3): > 1000 nM
- Ki (Adenosine receptor A1): > 1000 nM
- Ki (Adenosine receptor A2a): > 1000 nM

Compound: CCCn1c(=O)c2[nH]c(-c3cc(NC(=O)Cc4ccc(C(F)(F)F)cc4)nn3C)nc2n(CCC)c1=O
- Ki (Adenosine receptor A2b [3]): 130 nM

Compound: CCCn1c(=O)c2[nH]c(-c3cc(NC(=O)Cc4ccccc4)nn3C)nc2n(CCC)c1=O
- Ki (Adenosine receptor A2b [1]): 35 nM

Compound: CCCn1c(=O)c2[nH]c(-c3ccc(OCC(=O)Nc4ccc(I)cc4)nn3)nc2n(CCC)c1=O
- Ki (Adenosine receptor A1): > 1000 nM

Compound: CCCn1c(=O)c2[nH]c(-c3ccc(NC(=O)Nc4cccc(OC)c4)cc3)nc2n(CCC)c1=O
- Ki (Adenosine receptor A2b [3]): 58 nM
- Ki (Adenosine receptor A3): > 1000 nM
- Ki (Adenosine receptor A1): 1170 nM
- Ki (Adenosine receptor A2a): > 1000 nM

Compound: CCCn1c(=O)c2nc(-c3cc(OCC(=O)Nc4ccc5c(c4)OCO5)no3)[nH]c2n(CCC)c1=O
- Ki (Adenosine receptor A2b [1]): 47 nM
- Ki (Adenosine receptor A2b [3]): 47 nM
- IC50 (Adenosine receptor A2b [2]): 140 nM
- Ki (Adenosine receptor A3): > 1000 nM
- Ki (Adenosine receptor A1): > 1000 nM
- Ki (Adenosine receptor A2a): > 1000 nM

Compound: CCCn1c(=O)c2[nH]c(-c3cc(NC(=O)Cc4ccc5c(c4)OCO5)nn3C)nc2n(CCC)c1=O
- Ki (Adenosine receptor A2b [1]): 18 nM
- Ki (Adenosine receptor A2a): > 1000 nM
